Test results as given in patent US10059733B2 (NUCORION PHARMACEUTICALS, INC., priority 2014, dated 2018).
Where two headings read alike, the source gives them in different places.

Key:
HCV luciferase replicon = test: Isobologram analysis of synergism with antiviral compound in HCV luciferase replicon; assay type: cell-based
Method: Isobologram analysis was conducted to assess the potential synergistic interaction of representative disclosed compounds with representative antiviral compounds. The isobolgram analysis was conducted as previously described by Chou and Talalay (see Chou T. C. and Talalay P. “Analysis of combined drug effects: a new look at a very old problem.” Trends Pharmacol Sci 1983; 4:450-4; and Chou T. C. and Talalay P. “Quantitative analysis of dose-effect relationships: the combined effects of multiple drugs or enzyme inhibitors.” Adv Enzyme Regul 1984; 22:27-55; both of which are incorporated herein by reference in their entirety). The definitions of synergism are those described by Chou (see Chou, T. C. (2006) Theoretical basis, experimental design, and computerized simulation of synergism and antagonism in drug combination studies. Pharmacol Rev. 58(3):621-81, which is incorporated herein by reference in its entirety).
In the synergism studies described herein, the antiviral compound shown in Table 6 was assessed in combination with a representative disclosed compound, Compound 1.

Huh7 = test: TC50 assay with human cancer cell lines, 96 h: Huh7; assay type: cell-based; details: Huh-7, 96 h, read-out: TC50 Huh7 (μM)
Method: Huh7 cells were maintained at 37° C. in a humidified atmosphere at 5% CO2 in DMEM containing 10% FBS. […] The cells were then treated with each compound at concentrations ranging from 500 μM to 0 μM in triplicate in DMEM media containing 2% FBS and 0.5% DMSO and without phenol red. After 48 h of treatment at 37° C., the relative number of living cells in each well was determined by using the CellTiter 96 system (Promega) according to the manufacturer's instructions. The 3-(4,5-dimethylthiazol-2-yl)-5-(3-carboxymethoxyphenyl)-2-(4-sulfophenyl)-2H-tetrazolium (MTS) and phenazine methosulfate (PMS) reagents were added to each well of the 96-well plate and the plate was incubated at 37° C. for approximately 2 h. The absorbance at 490 nm and 650 nm in each well was then determined by using a Flexstation 3 microplate reader (Molecular Dynamics). The absorbance determined at 650 nm was then subtracted from the absorbance determined at 490 nm to correct for light scattering. The corrected absorbance values representing the relative number of live cells in each condition were then plotted as a function of compound concentration, and the data were then fit to the following sigmoidal Emax equation by using Kaleidagraph: y=(Emax*x^Slope)/(TC50^Slope+x^Slope) where y is the relative corrected absorbance value, Emax is the maximum relative inhibition, x is the compound concentration, TC50 is the concentration of the compound at which the total cell population is reduced by 50%, and Slope is the slope of the curve.
Huh7, HEPG2, HEK293, MCF-7 and BxPC3 cell lines were maintained at 37° C. in a humidified atmosphere at 5% CO2 in DMEM containing 10% FBS. […] The cells were then treated with each compound at concentrations ranging from 500 μM to 0 μM in triplicate in DMEM media containing 2% FBS and 0.5% DMSO and without phenol red.

RPK9 cells = test: TC50 assay in gemcitabine resistant (dCK deficient) RPK9 cells, 48 h; details: read-out: TC50 (μM) in RPK9 cells at 48 hr
Method: (§1) Huh7 cells were maintained at 37° C. in a humidified atmosphere at 5% CO2 in DMEM containing 10% FBS. […] The cells were then treated with each compound at concentrations ranging from 500 μM to 0 μM in triplicate in DMEM media containing 2% FBS and 0.5% DMSO and without phenol red. After 48 h of treatment at 37° C., the relative number of living cells in each well was determined by using the CellTiter 96 system (Promega) according to the manufacturer's instructions. The 3-(4,5-dimethylthiazol-2-yl)-5-(3-carboxymethoxyphenyl)-2-(4-sulfophenyl)-2H-tetrazolium (MTS) and phenazine methosulfate (PMS) reagents were added to each well of the 96-well plate and the plate was incubated at 37° C. for approximately 2 h. The absorbance at 490 nm and 650 nm in each well was then determined by using a Flexstation 3 microplate reader ([…]). The absorbance determined at 650 nm was then subtracted from the absorbance determined at 490 nm to correct for light scattering. The corrected absorbance values representing the relative number of live cells in each condition were then plotted as a function of compound concentration, and the data were then fit to the following sigmoidal Emax equation by using Kaleidagraph: y=(Emax*x^Slope)/(TC50^Slope+x^Slope) where y is the relative corrected absorbance value, Emax is the maximum relative inhibition, x is the compound concentration, TC50 is the concentration of the compound at which the total cell population is reduced by 50%, and Slope is the slope of the curve.
(§2) PK9 and RPK9 cells were maintained at 37° C. in a humidified atmosphere at 5% CO2 in Roswell Park Memorial Institute (RPMI) media containing 10% FBS. […] The cells were then treated with each compound at concentrations ranging from […] to 0 μM in triplicate in RPMI media containing 2% FBS and 0.5% DMSO and without phenol red. […] The RPK9 cells were derived from the parental PK9 cell line, and are deficient for dCK activity due to the partial deletion of the dCK gene.

Huh7 cells = test: Cell transport: cytotoxicity in Huh7 cells with or without ENT1 inhibitor NBTI; details: for CC50: Homo sapiens, Huh-7, 48 h
Method: as §1
To this end, Huh7 cells or PK9 cells were seeded in 96-well plates at a density of 5,000 cells/well or 2,500 cells/well, respectively, and the plates were incubated at 37° C. for 24 h to allow for cell attachment. The media was then removed from the plates and replaced with media containing 2% FBS, 0.5% DMSO and 10 μM NBTI. […] Subsequently, the cells were treated with each compound at final concentrations ranging from 500 μM to 0 μM in triplicate in media containing 2% FBS, 0.5% DMSO and 10 μM NBTI. […] The TC50 values of each compound in the presence or absence of the ENT1 inhibitor were then compared.

[1] = TC50 assay in Huh7 cells, 48 h (CellTiter 96); details: human
Method: as §1
The data in Table 1 were determined for cells exposed to drug for 48 h. The IC50 is the concentration of each compound necessary to inhibit the replication of the HCV luciferase replicon to 50%. “TC50,” refers to toxic concentration necessary to reduce the cell population by 50%. All compounds were purified by HPLC.

PK9 cells = test: TC50 assay in PK9 cells, 48 h; details: Homo sapiens, PK9, 48 h, read-out: TC50 (μM) in PK9 cells at 48 hr
Method: as §1, §2

[2] = Compound 1 0.2 nM + BMS-790052 0.010 nM
[3] = Compound 1 0.4 nM + BMS-790052 0.008 nM
[4] = Compound 1 7.1 nM + BMS-790052 0.006 nM
[5] = Compound 1 14.2 nM + BMS-790052 0.004 nM

## CCCC(CCC)C(=O)Nc1ccn([C@@H]2O[C@H](CO[P@@](=O)(N[C@@H](C)C(=O)OC(C)C)Oc3ccccc3)[C@@H](O)C2(F)F)c(=O)n1 [Compound 1, (S)-isopropyl 2-(((S)-(((2R,3R,5R)-4,4-difluoro-3-hydroxy-5-(2-oxo-4-(2-propylpentanamido)pyrimidin-1(2H)-yl)tetrahydrofuran-2-yl)methoxy)(phenoxy)phosphoryl)amino)propanoate]
HCV luciferase replicon; [2]
  Combination Index: 0.505
  level of synergism: synergism
HCV luciferase replicon; [3]
  Combination Index: 0.410
  level of synergism: synergisn
HCV luciferase replicon; [4]
  Combination Index: 0.468
  level of synergism: synergism
HCV luciferase replicon; [5]
  Combination Index: 0.535
  level of synergism: synergism
HCV luciferase replicon; Compound 1 42.3 nM, BMS-790052 0 nM
  Combination Index: 1.000
HCV luciferase replicon; co-treatment with NS5A inhibitor BMS-790052
  interaction of Compound 1 with BMS-790052 in the inhibition of the HCV luciferase replicon: synergism
HCV luciferase replicon; compound alone, other compound 0 nM
  concentration of the single agent on the IC50 isobologram (Combination Index 1.000): 42.3 nM
Huh7
  CC50: 3.28 ± 0.57 µM
RPK9 cells
  CC50: 24.2 ± 6.4 µM
Huh7 cells; read-out: TC50 (μM) in Huh7 cells at 48 h With NBTI
  CC50: 16.4 µM
Huh7 cells; read-out: TC50 (μM) in Huh7 cells at 48 h Without NBTI
  CC50: 17.4 µM
Huh7 cells; conclusion from TC50 with/without 10 μM NBTI in Huh7 and PK9 cells
  requirement of the ENT1 transporter for cell entry: do not require the ENT1 transporter for cell entry
[1]
  CC50 at 48 h: 17.4 ± 3.4 µM
PK9 cells
  CC50: 25.2 ± 13.6 µM
